Measurements taken from ChEMBL document CHEMBL1909046, “DrugMatrix in vitro pharmacology data”.

Tests used:
[1] = molecular target: Aldo-keto reductase family 1 member B1 (Rattus norvegicus, UniProt P07943); experiment: biochemical; format: tissue-based, Lens of camera-type eye;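 note: inhibition of aldose reductase enzyme activity, measured with DL-glyceraldehyde as the substrate; in other assays of this panel Not Active means under 50% inhibition at 10 µM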
[2] = molecular target: Protein phosphatase 3 catalytic subunit alpha (Homo sapiens, UniProt Q08209); set-up: species or system Escherichia coli;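 note: inhibition of calcineurin (PP2B) enzyme activity, measured with DiFMUP as the substrate; in other assays of this panel Not Active means under 50% inhibition at 10 µM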
[3] = molecular target: Beta-1 adrenergic receptor (Homo sapiens, UniProt P08588); experiment: DRUGMATRIX: Adrenergic beta1 radioligand binding (ligand: [125I] Cyanopindolol); format: cell membranes, CHO-K1, Membrane; details: cho-k1; Not Active = under 50% inhibition at 10 µM
Sequence of Beta-1 adrenergic receptor (P08588 whole entry): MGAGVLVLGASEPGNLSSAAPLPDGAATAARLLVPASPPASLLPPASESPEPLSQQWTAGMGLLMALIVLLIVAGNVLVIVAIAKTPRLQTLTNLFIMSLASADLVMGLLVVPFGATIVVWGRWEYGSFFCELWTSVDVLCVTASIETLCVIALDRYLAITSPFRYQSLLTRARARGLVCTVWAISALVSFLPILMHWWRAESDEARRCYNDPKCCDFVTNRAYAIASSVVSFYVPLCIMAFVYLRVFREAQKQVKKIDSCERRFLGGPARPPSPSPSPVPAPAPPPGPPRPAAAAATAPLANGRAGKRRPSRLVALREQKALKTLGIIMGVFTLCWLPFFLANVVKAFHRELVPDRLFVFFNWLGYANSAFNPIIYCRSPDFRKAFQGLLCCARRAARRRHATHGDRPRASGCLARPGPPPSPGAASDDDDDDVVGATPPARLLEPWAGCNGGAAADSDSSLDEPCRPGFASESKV

[4] = DRUGMATRIX: GABAA, Muscimol, Central radioligand binding (ligand: [3H] Muscimol); format: cell membranes, Rattus norvegicus, Wistar, Brain, Membrane; details: Not Active = under 50% inhibition at 10 µM
[5] = DRUGMATRIX: Glutamate, NMDA, Agonism radioligand binding (ligand: [3H] CGP-39653); format: cell membranes, Rattus norvegicus, Wistar, Cerebral cortex, Membrane; details: Not Active = under 50% inhibition at 10 µM
[6] = DRUGMATRIX: Interleukin IL-1 radioligand binding (ligand: [125I] interleukin 1beta); format: cell membranes, Membrane; details: nih3t3; Not Active = under 50% inhibition at 10 µM
[7] = molecular target: T1, Cholecystokinin receptor type A (Homo sapiens, UniProt P32238); format: cell membranes, Membrane; details: 1321-n1; note: in other assays of this panel Not Active means under 50% inhibition at 10 µM
T1 sequence (P32238 whole entry): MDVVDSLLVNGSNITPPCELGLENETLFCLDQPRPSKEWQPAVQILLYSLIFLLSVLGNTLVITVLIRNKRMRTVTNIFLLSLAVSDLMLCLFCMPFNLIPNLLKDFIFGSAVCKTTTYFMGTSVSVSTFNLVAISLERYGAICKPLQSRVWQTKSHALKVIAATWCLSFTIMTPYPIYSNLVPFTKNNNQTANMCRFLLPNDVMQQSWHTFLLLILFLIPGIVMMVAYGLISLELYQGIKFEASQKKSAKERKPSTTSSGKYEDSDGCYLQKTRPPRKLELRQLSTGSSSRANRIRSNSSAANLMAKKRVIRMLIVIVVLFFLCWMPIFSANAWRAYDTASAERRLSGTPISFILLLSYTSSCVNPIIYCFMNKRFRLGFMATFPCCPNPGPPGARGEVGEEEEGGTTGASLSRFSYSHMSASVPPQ

Acetylcholinesterase = Acetylcholinesterase (Homo sapiens, UniProt P22303); experiment: DRUGMATRIX: Acetylcholinesterase enzyme inhibition (substrate: acetylthiocholine); format: cell-based, HEK293; details: hek293; Not Active = under 50% inhibition at 10 µM
Sequence of Acetylcholinesterase (P22303 whole entry): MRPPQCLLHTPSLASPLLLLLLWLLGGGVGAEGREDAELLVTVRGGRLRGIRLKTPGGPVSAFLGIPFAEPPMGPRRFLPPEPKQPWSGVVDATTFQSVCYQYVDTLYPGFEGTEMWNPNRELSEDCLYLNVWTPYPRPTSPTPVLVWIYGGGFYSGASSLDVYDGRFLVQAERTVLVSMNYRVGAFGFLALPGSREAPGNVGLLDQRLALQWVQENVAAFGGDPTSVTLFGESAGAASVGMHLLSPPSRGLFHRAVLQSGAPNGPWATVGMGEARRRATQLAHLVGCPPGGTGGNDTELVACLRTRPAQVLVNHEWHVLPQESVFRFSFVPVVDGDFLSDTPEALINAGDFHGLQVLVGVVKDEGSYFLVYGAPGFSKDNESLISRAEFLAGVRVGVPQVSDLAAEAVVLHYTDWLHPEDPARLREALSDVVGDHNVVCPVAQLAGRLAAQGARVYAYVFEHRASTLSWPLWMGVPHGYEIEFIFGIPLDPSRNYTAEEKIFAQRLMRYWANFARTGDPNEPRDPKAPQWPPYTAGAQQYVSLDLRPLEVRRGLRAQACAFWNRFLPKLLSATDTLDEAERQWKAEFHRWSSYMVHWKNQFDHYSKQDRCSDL

CCOc1nc2cccc(C(=O)O)c2n1Cc1ccc(-c2ccccc2-c2nnn[nH]2)cc1
Not Active: IC50 [1] | IC50 [2] | IC50 [3] | IC50 [4] | Ki [4] | IC50 [5] | Ki [5] | IC50 [6] | Ki [6] | IC50 [7] | IC50 (Acetylcholinesterase)

O=C(O)CCCc1cccs1
Not Active: IC50 [1] | IC50 [2] | IC50 [3] | IC50 [4] | Ki [4] | IC50 [5] | Ki [5] | IC50 [6] | Ki [6] | IC50 [7] | IC50 (Acetylcholinesterase)

COc1ccccc1N
Not Active: IC50 [1] | IC50 [2] | IC50 [3] | IC50 [4] | Ki [4] | IC50 [5] | Ki [5] | IC50 [6] | Ki [6] | IC50 [7] | IC50 (Acetylcholinesterase)

O=C(c1ccccc1F)N1CCC(Cc2ccccc2)CC1
Not Active: IC50 [1] | IC50 [2] | IC50 [3] | IC50 [4] | Ki [4] | IC50 [5] | Ki [5] | IC50 [6] | Ki [6] | IC50 [7] | IC50 (Acetylcholinesterase)

Cc1c(O)cccc1C(=O)N[C@@H](CSc1ccccc1)[C@H](O)CN1C[C@H]2CCCC[C@H]2C[C@H]1C(=O)NC(C)(C)C
Not Active: IC50 [1] | IC50 [2] | IC50 [4] | Ki [4] | IC50 [5] | Ki [5] | IC50 [6] | Ki [6] | IC50 [7] | IC50 (Acetylcholinesterase)

CC(O)COC[C@H]1O[C@@H]2O[C@H]3[C@H](O)[C@@H](O)[C@@H](O[C@H]4[C@H](O)[C@@H](O)[C@@H](O[C@H]5[C@H](O)[C@@H](O)[C@@H](O[C@H]6[C@H](O)[C@@H](O)[C@@H](O[C@H]7[C@H](O)[C@@H](O)[C@@H](O[C@H]8[C@H](O)[C@@H](O)[C@@H](O[C@H]1[C@H](O)[C@H]2O)O[C@@H]8COCC(C)O)O[C@@H]7COCC(C)O)O[C@@H]6COCC(C)O)O[C@@H]5COCC(C)O)O[C@@H]4COCC(C)O)O[C@@H]3COCC(C)O (stereo partly drawn) [2-HYDROXYPROPYL-BETA-CYCLODEXTRIN]
Not Active: IC50 [1] | IC50 [2] | IC50 [3] | IC50 [4] | Ki [4] | IC50 [5] | Ki [5] | IC50 [6] | Ki [6] | IC50 [7] | IC50 (Acetylcholinesterase)

NC(=O)c1cccc(N)c1 [3-AMINOBENZAMIDE]
Not Active: IC50 [1] | IC50 [2] | IC50 [3] | IC50 [4] | Ki [4] | IC50 [5] | Ki [5] | IC50 [6] | Ki [6] | IC50 [7] | IC50 (Acetylcholinesterase)

C[C@H]1O[C@H](O[C@H]2[C@H](O)[C@@H](O)[C@@H](O[C@H]3[C@H](O)[C@@H](O)C(O)O[C@@H]3CO)O[C@@H]2CO)[C@H](O)[C@@H](O)[C@@H]1N[C@H]1C=C(CO)[C@@H](O)[C@H](O)[C@H]1O (stereo not given in full) [ACARBOSE]
Not Active: IC50 [1] | IC50 [2] | IC50 [3] | IC50 [4] | Ki [4] | IC50 [5] | Ki [5] | IC50 [6] | Ki [6] | IC50 [7] | IC50 (Acetylcholinesterase)

CC[C@H]1[C@@H]2C[C@H]3[C@@H]4N(C)c5ccccc5[C@]45C[C@@H]([C@@H]2[C@H]5O)N3[C@@H]1O [AJMALINE]
Not Active: IC50 [1] | IC50 [2] | IC50 [3] | IC50 [4] | Ki [4] | IC50 [5] | Ki [5] | IC50 [6] | Ki [6] | IC50 [7] | IC50 (Acetylcholinesterase)

NC12CC3CC(CC(C3)C1)C2 [AMANTADINE]
Not Active: IC50 [1] | IC50 [2] | IC50 [3] | IC50 [4] | Ki [4] | IC50 [5] | Ki [5] | IC50 [6] | Ki [6] | IC50 [7] | IC50 (Acetylcholinesterase)

NCCCNCCSP(=O)(O)O [AMIFOSTINE]
Not Active: IC50 [1] | IC50 [2] | IC50 [3] | IC50 [4] | Ki [4] | IC50 [5] | Ki [5] | IC50 [6] | Ki [6] | IC50 [7] | IC50 (Acetylcholinesterase)

CN(C)CCC=C1c2ccccc2CCc2ccccc21 [AMITRIPTYLINE]
Not Active: IC50 [1] | IC50 [2] | IC50 [3] | IC50 [4] | Ki [4] | IC50 [5] | Ki [5] | IC50 [6] | Ki [6] | IC50 [7] | IC50 (Acetylcholinesterase)

O=C(O)CC(O)(CC(=O)O)C(=O)O [CITRIC ACID]
Not Active: IC50 [1] | IC50 [2] | IC50 [4] | Ki [4] | IC50 [5] | Ki [5] | IC50 [6] | Ki [6] | IC50 [7] | IC50 (Acetylcholinesterase)

CN1CCC(=C2c3ccccc3CC(=O)c3sccc32)CC1 [KETOTIFEN]
Not Active: IC50 [1] | IC50 [2] | IC50 [4] | Ki [4] | IC50 [5] | Ki [5] | IC50 [6] | Ki [6] | IC50 [7] | IC50 (Acetylcholinesterase)

CN1CCCC(CN2c3ccccc3Sc3ccccc32)C1 (stereo not given) [MEPAZINE]
Not Active: IC50 [1] | IC50 [2] | IC50 [3] | IC50 [4] | Ki [4] | IC50 [6] | Ki [6] | IC50 [7] | IC50 (Acetylcholinesterase)

CN(C)C(=O)Oc1cccc([N+](C)(C)C)c1.[Br-] [NEOSTIGMINE BROMIDE]
Not Active: IC50 [1] | IC50 [2] | IC50 [3] | IC50 [4] | Ki [4] | IC50 [5] | Ki [5] | IC50 [6] | Ki [6] | IC50 [7]

CCN(CC)CCCC(C)Nc1c2ccc(Cl)cc2nc2ccc(OC)cc12 (stereo not given) [QUINACRINE]
Not Active: IC50 [1] | IC50 [2] | IC50 [3] | IC50 [4] | Ki [4] | IC50 [5] | Ki [5] | IC50 [6] | Ki [6] | IC50 [7]
